Where a name gives a salt, the structure may show the parent alone. Read-outs that look alike come from different tables or passages of the source.

This note sets out measurements from US10815199B2, “NMDA antagonist prodrugs” (priority 2013, dated 2020).

For one data set, the system named is Seizures in dog. Briefly: Seizures in dog (NOEL/LOEL) after oral gavage. Format: in vivo. Conditions: for LOEL Seizures in dog (Dose administered) / NOEL Seizures in dog (Dose administered): oral gavage, dose reflects free base concentration. The protocol:
This example illustrates that when doses of prodrug of (S)-1-phenyl-2-(pyridin-2-yl)ethanamine dihydrochloride (Example 5) and (S)-1-phenyl-2-(pyridin-2-yl)ethanamine dihydrochloride were administered to dogs, the risk of seizures, as represented by NOEL and LOEL, was less with the prodrug.
(S)-1-phenyl-2-(pyridin-2-yl)ethanamine dihydrochloride and vehicle were administered once per day via oral gavage (water). Formulations were prepared twice, once weekly. Dosing formulations were stored and refrigerated (2-8° C.) in amber glass containers until required for dosing. A range of concentrations of (S)-1-phenyl-2-(pyridin-2-yl)ethanamine dihydrochloride in vehicle were prepared in order to keep the dose volume for all doses (1 mL/kg). Individual doses were based on the most recent body weights of dogs used in the study.
A prodrug of (S)-1-phenyl-2-(pyridin-2-yl)ethanamine as fumarate salt (example 5) and vehicle were administered once per day for 14 days via oral gavage at approximately the same time each day (±1 hour), (vehicle is 0.3 M gluconic acid pH 3.0). A range of concentrations of prodrug of (S)-1-phenyl-2-(pyridin-2-yl)ethanamine as fumarate salt in vehicle were prepared (for example 3, 10 and 30 mg/mL of prodrug of (S)-1-phenyl-2-(pyridin-2-yl)ethanamine) in order to keep the dose volume for all doses (2 mL/kg). The dosing formulations were warmed to room temperature by stirring for at least 30 minutes prior to dosing and continuously throughout the administration procedure. Individual doses were based on the most recent body weights of dogs used in the study.
Table 4 Compound 1 is (S)-1-phenyl-2-(pyridin-2-yl)ethanamine. […] In each case the highest blood concentration (Cmax) of free base (S)-1-phenyl-2-(pyridin-2-yl)ethanamine is measured. In the first case, the free base (S)-1-phenyl-2-(pyridin-2-yl)ethanamine is generated directly from Compound 1, administered as the dihydrochloride salt. In the second case, the free base (S)-1-phenyl-2-(pyridin-2-yl)ethanamine is generated via in vivo conversion from a prodrug of Compound 1, administered as the fumarate salt. The NOEL for seizures was higher when the prodrug of (S)-1-phenyl-2-(pyridin-2-yl)ethanamine as fumarate salt was administered compared to when (S)-1-phenyl-2-(pyridin-2-yl)ethanamine as dihydrochloride salt was administered.

Data set [1] can be described thus: Hum Liver Assay (human liver S9 fraction). The data set is classed as in vitro ADME. An excerpt:
This example illustrates that different prodrugs of (S)-1-phenyl-2-(pyridin-2-yl)ethanamine, wherein R1 is C1-6 alkylC(O)O(C1-6 alkoxy), may be used to achieve differing rates of conversion (i.e., slow or rapid) to (S)-1-phenyl-2-(pyridin-2-yl)ethanamine to ascertain a suitable PK profile. […] Further, this Example illustrates that there is no expected loss in oral exposure when a prodrug is converted to free base. Conversion of a prodrug wherein R1 is C1-6 alkylC(O)O(C1-6 alkoxy) to (S)-1-phenyl-2-(pyridin-2-yl)ethanamine is expected to occur via an initial enzymatic hydrolysis of a functional group, such as an ester, followed by a spontaneous conversion to (S)-1-phenyl-2-(pyridin-2-yl)ethanamine. Enzymes involved are expected to be several non-specific, high capacity esterases, which can be shown by inhibiting the conversion with a non-selective esterase inhibitor but not inhibiting the conversion using selective inhibitors. Such esterases are expected to be distributed throughout the human body. Human Intestinal Fluid (HIF), human liver S9 fraction and human whole blood have been used to examine the pharmacokinetic properties of the prodrugs of (S)-1-phenyl-2-(pyridin-2-yl)ethanamine as well as the formation rate and formation extent of the (S)-1-phenyl-2-(pyridin-2-yl)ethanamine in different bodily compartments. The formation rate of (S)-1-phenyl-2-(pyridin-2-yl)ethanamine from different prodrugs of (S)-1-phenyl-2-(pyridin-2-yl)ethanamine differs markedly in all tested assays, as shown in Table 1.
Human Intestinal Fluids (HIF), Human Liver and Human Blood assays used to generate the results shown in Table 1 have been described in Malmborg J & Ploeger B A, J Pharmacol Toxicol Methods (2013) May-June 67(3) 203-13, which is incorporated by reference herein.
(§1) [drawing 48] is expected to occur via enzymatic hydrolysis at the proline C-terminus, releasing a dipeptide and (S)-1-phenyl-2-(pyridin-2-yl)ethanamine. The enzyme involved is expected to be dipeptidyl peptidase IV (DPPIV), which can be shown by inhibiting the conversion with a selective inhibitor of this enzyme. DPPIV is expected to be distributed throughout the human body. Human Intestinal Fluid (HIF), human liver S9 fraction and human whole blood have been used to examine the pharmacokinetic properties of prodrugs of (S)-1-phenyl-2-(pyridin-2-yl)ethanamine as well as the formation rate and formation extent of the (S)-1-phenyl-2-(pyridin-2-yl)ethanamine in different bodily compartments. Caco-2 cells have been used to evaluate the permeability and absorption potential of the prodrugs of (S)-1-phenyl-2-(pyridin-2-yl)ethanamine. The formation rate of (S)-1-phenyl-2-(pyridin-2-yl)ethanamine from different prodrugs of (S)-1-phenyl-2-(pyridin-2-yl)ethanamine differed in the tested assays, especially in human blood, as shown in Table 2.

Another data set can be described thus: Caco-2 permeability. The data set is classed as in vitro ADME. Conditions: human; Caco-2 cells.
Description: as §1

Data set [2] can be described thus: Conversion of prodrug at increasing initial concentrations in human intestinal fluid (LC-UV). The data set is classed as in vitro ADME. Conditions: initial concentrations 33, 100, 300 and 600 μmol/L, FIG. 1a and 1b. The protocol: FIGS. 1a and 1b illustrates the conversion of prodrug of (S)-1-phenyl-2-(pyridin-2-yl)ethanamine (Example 5) to (S)-1-phenyl-2-(pyridin-2-yl)ethanamine during an incubation period in human intestinal fluid. In particular, FIG. 1a illustrates prodrug of (S)-1-phenyl-2-(pyridin-2-yl)ethanamine (Example 5) concentration (initial concentrations of 30, 100, 300 and 600 as it transforms to (S)-1-phenyl-2-(pyridin-2-yl)ethanamine, during an incubation period in human intestinal fluid. FIG. 1b illustrates (S)-1-phenyl-2-(pyridin-2-yl)ethanamine concentration, as it converts from prodrug of (S)-1-phenyl-2-(pyridin-2-yl)ethanamine (Example 5, initial concentrations of 30, 100, 300 and 600 μM), during an incubation period in human intestinal fluid. […]
Stock solutions of prodrug of (S)-1-phenyl-2-(pyridin-2-yl)ethanamine (0.33, 1, 3 and 6 mmol/L) were prepared by adding a volume (8.25, 25, 75 and 150 μL) of 20 mmol/L solution of prodrug of (S)-1-phenyl-2-(pyridin-2-yl)ethanamine dissolved in DMSO, to FaSSIF-v2 (491.75, 475, 425 and 350 μL). […] The conversion rate from prodrug to (S)-1-phenyl-2-(pyridin-2-yl)ethanamine was determined by fitting the measured prodrug and (S)-1-phenyl-2-(pyridin-2-yl)ethanamine concentrations versus time.

Where [3] appears, read: human, s9, Table 2, read-out: Prodrug Clint Hum Liver S9.
The mark [4] stands for this setting: human, s9, Table 1, read-out: Prodrug Clint Hum Liver S9.

In the case of `Cl.Cl.N[C@@H](Cc1ccccn1)c1ccccc1` [Compound 1, as di-HCl salt, (S)-1-phenyl-2-(pyridin-2-yl)ethanamine dihydrochloride, reference compound], in the data set on Seizures in dog, the “LOEL Seizures in dog (Dose administered)” value is “(20 mg/kg)” and the “NOEL Seizures in dog (Dose administered)” value was “(10 mg/kg)”.
Take `N[C@@H](Cc1c[nH]cn1)C(=O)N1CCC[C@H]1C(=O)N[C@@H](Cc1ccccn1)c1ccccc1` [Example 7, (S)-1-((S)-2-Amino-3-(1H-imidazol-4-yl)propanoyl)-N—((S)-1-phenyl-2-(pyridin-2-yl)ethyl)pyrrolidine-2-carboxamide]: the microsomal CLint in data set [1] (setting [3]) was 33 µL/min/mg. In the data set “Caco-2 permeability”, this molecule had an apparent permeability (Papp) of 1.6 ×10⁻⁶ cm/s.
Turning to `CC(C)C(=O)OC(OC(=O)N[C@@H](Cc1ccccn1)c1ccccc1)C(C)C` (single isomer, unassigned) [Example 2 Diastereomer 2], the microsomal CLint in data set [1] (setting [4]) came out at 1900 µL/min/mg.
Regarding `NCCCC[C@H](N)C(=O)N1CCC[C@H]1C(=O)N[C@@H](Cc1ccccn1)c1ccccc1` [Example 6, (S)-1-((S)-2,6-Diaminohexanoyl)-N—((S)-1-phenyl-2-(pyridin-2-yl)ethyl)pyrrolidine-2-carboxamide], the microsomal CLint in data set [1] (setting [3]) was found to be 73 µL/min/mg. For the same molecule, the apparent permeability coefficient (Papp) in the data set “Caco-2 permeability” is 0.07 ×10⁻⁶ cm/s.
Turning to `CC(C)[C@H](N)C(=O)N1CCC[C@H]1C(=O)N[C@@H](Cc1ccccn1)c1ccccc1` [Example 5, (S)-1-((S)-2-Amino-3-methylbutanoyl)-N—((S)-1-phenyl-2-(pyridin-2-yl)ethyl)pyrrolidine-2-carboxamide], the microsomal CLint in data set [1] (setting [3]) came to 120 µL/min/mg. Further, in the data set “Caco-2 permeability”, the Papp is 1.4 ×10⁻⁶ cm/s. Moreover, the “risk of seizures, as represented by NOEL and LOEL” value in the data set on Seizures in dog (dogs, prodrug versus (S)-1-phenyl-2-(pyridin-2-yl)ethanamine dihydrochloride) is “less”. Besides, in data set [2], the “increase in concentration of (S)-1-phenyl-2-(pyridin-2-yl)ethanamine with increasing doses of prodrug” value is recorded as “less than proportional increases”.
In the case of `N=C(N)NCCC[C@H](N)C(=O)N1CCC[C@H]1C(=O)N[C@@H](Cc1ccccn1)c1ccccc1` [Example 12, 2-[(2S)-2-{[(2S)-1-[(2S)-2-Azaniumyl-5-{[azaniumyl(iminiumyl)methyl]amino}pentanoyl]-pyrrolidin-2-yl]formamido}-2-phenylethyl]pyridin-1-ium tetrachloride], the microsomal CLint in data set [1] (setting [3]) came to 69 µL/min/mg. The molecule also yielded a Papp in “Caco-2 permeability” of 8.6 ×10⁻⁶ cm/s.
`N[C@@H](Cc1ccc(O)cc1)C(=O)N1CCC[C@H]1C(=O)N[C@@H](Cc1ccccn1)c1ccccc1` [Example 8, 2-((S)-2-((S)-1-((S)-2-Amino-3-(4-hydroxyphenyl)propanoyl)pyrrolidine-2-carboxamido)-2-phenylethyl)pyridine dihydrochloride]: the microsomal CLint in data set [1] (Table 2, read-out: Prodrug Clint Hum Liver S9) was 51 µL/min/mg. This molecule also had a Papp in the data set “Caco-2 permeability” of 3.2 ×10⁻⁶ cm/s.
Consider `CC(OC(=O)N[C@@H](Cc1ccccn1)c1ccccc1)OC(=O)C(C)C` (single isomer, unassigned) [Example 4 Diastereomer 1], for which the microsomal CLint in data set [1] (setting [4]) was 1200 µL/min/mg.
On the same count and under the same terms, then `CC(C)C(=O)OCOC(=O)N[C@@H](Cc1ccccn1)c1ccccc1` [Example 1, (S)-(1-Phenyl-2-(pyridin-2-yl)ethylcarbamoyloxy)methyl isobutyrate], with 2300 µL/min/mg.
In the case of `CC(C)[C@H](N)C(=O)N1CCC[C@H]1C(=O)N[C@@H](Cc1ccccn1)c1ccccc1` [Prodrug of Compound 1, as fumarate salt, (S)-1-((S)-2-Amino-3-methylbutanoyl)-N-((S)-1-phenyl-2-(pyridin-2-yl)ethyl)pyrrolidine-2-carboxamide fumerate], in the data set with Seizures in dog, the “LOEL Seizures in dog (Dose administered)” value is listed as “(60 mg/kg)” and the “NOEL Seizures in dog (Dose administered)” value was “(20 mg/kg)”.
